Common to all, as to format: cell-based
The test system of series [1] is MT-4 cells. Briefly: Cytotoxicity assay in MT-4 cells. To be noted: uninfected MT-4 cells, 5 days, Cell Titer Glo; read-out: CC50. A digest of the protocol: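 Uninfected MT-4 cells were incubated with 1:3 serially diluted compound in RPMI/10% FBS for 5 days at 37° C. Viability was read by CellTiter-Glo luminescence, with 10 μM puromycin as the baseline cytotoxicity control. Values are the concentration giving a 50% decrease in luminescence, from sigmoidal dose-response fits.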
(In ATP-based viability assays light output follows the ATP content of the culture.)

Series [2] deals with pLai RLuc reporter virus. As to the kind of experiment: HIV MT-4 serum shift antiviral reporter assay. A digest of the protocol:
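MT-4 cells pre-infected with pLai RLuc virus for 2 h at 37 °C, then incubated 72 h at 37 °C with compound in medium (RPMI, 10% FBS) with or without 50% human serum; Renilla luminescence read. EC50 from sigmoidal fit; serum shift = EC50(HS/CCM)/EC50(CCM).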
For orientation: In a reporter assay the amount or activity of a reporter protein is the signal.

For series [3], the system named is HIV-1 (IIIB). Briefly: Antiviral assay in MT-4 cells. To be noted: HIV-1 IIIB infected MT-4 cells, 5 days, Cell Titer Glo, read-out: MT4 EC50. Put shortly:
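MT-4 cells infected with a 1:250 dilution of HIV-1 IIIB stock were incubated with serially diluted (1:3) compound for 5 days at 37 °C. Viability read by Cell Titer Glo luminescence; EC50 is the concentration giving 50% decrease in signal, from sigmoidal dose-response fits.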

The mark [4] stands for this setting: HS/CCM: 50% human serum, 72 h, Renilla Glo, read-out: RLUC 50% HS.
[5] abbreviates: cell culture media (RPMI, 10% FBS), 72 h, Renilla Glo, read-out: RLUC CCM.
Setting [6] is: Human immunodeficiency virus 1, 72 h, read-out: RLUC 50% HS (nM), HS/CCM: 50% human serum, 72 h, Renilla Glo.
[7] abbreviates: Human immunodeficiency virus 1, 72 h, read-out: RLUC CCM (nM), cell culture media (RPMI, 10% FBS), 72 h, Renilla Glo.
[8] abbreviates: Human immunodeficiency virus 1, IIIB, MT4, 120 h.
Setting [9] is: read-out: RLUC 50% HS, HS/CCM: 50% human serum, 72 h, Renilla Glo.
Setting [10] is: read-out: RLUC CCM, cell culture media (RPMI, 10% FBS), 72 h, Renilla Glo.

Like-named read-outs stand apart in the source and are kept apart here.

Usually CC50 stands for the concentration that lowers cell viability or growth by half. As for `C[C@H]1CCC(C)(C)N2CN1n1cc(C(=O)NCc3ccc(F)cc3F)c(=O)c(O)c1C2=O` [Example C94, (1R,2S)—N-(2,4-difluorobenzyl)-8-hydroxy-2,5,5-trimethyl-7,9-dioxo-2,3,4,5,7,9-hexahydro-1,6-methanopyrido[1,2-b][1,2,5]triazonine-10-carboxamide], the CC50 in series [1] was 50000 nM. Further, the EC50 in series [2] (setting [4]) is 361 nM; in series [2] (setting [5]), 6.21 nM; in series [3], 25.1 nM.
Taken in the same sequence, the figures for `O=C(NCc1c(F)cc(F)cc1F)c1cn2c(c(O)c1=O)C(=O)N1Cc3ccc(F)cc3CN2C1` [Example C4, (6S)-9-fluoro-1-hydroxy-2,14-dioxo-N-(2,4,6-trifluorobenzyl)-2,7,12,14-tetrahydro-6,13-methanobenzo[g]pyrido[1,2-b][1,2,5]triazonine-3-carboxamide] were 12000 nM, 6.08 nM, 0.54 nM and 1.2 nM.
With `COC[C@@H]1C=C[C@H](C)N2CN1n1cc(C(=O)NCc3c(F)cc(F)cc3F)c(=O)c(O)c1C2=O` [Example C79, (1S,2S,5S)-8-hydroxy-2-(methoxymethyl)-5-methyl-7,9-dioxo-N-(2,4,6-trifluorobenzyl)-2,5,7,9-tetrahydro-1,6-methanopyrido[1,2-b][1,2,5]triazonine-10-carboxamide], the CC50 in series [1] is 50000 nM. Further, the EC50 in series [2] (setting [6]) stood at 638 nM; in series [2] (setting [7]) it was 1.81 nM; in series [3] (setting [8]), 4.6 nM.
With `CO[C@@H]1[C@H](OC)[C@H](C)N2CN([C@@H]1C)n1cc(C(=O)NCc3c(F)cc(F)cc3F)c(=O)c(O)c1C2=O` [Example C61, (1S,2R,3S,4R,5S)-8-hydroxy-3,4-dimethoxy-2,5-dimethyl-7,9-dioxo-N-(2,4,6-trifluorobenzyl)-2,3,4,5,7,9-hexahydro-1,6-methanopyrido[1,2-b][1,2,5]triazonine-10-carboxamide], in series [1], the CC50 came out at 50000 nM. The EC50 in series [2] (setting [6]) stood at 1.6 nM; in series [2] (setting [7]), 0.76 nM; in series [3] (setting [8]), 2.8 nM.
For `C[C@H]1C=C[C@H](C)N2CN1C(=O)c1c(O)c(=O)c(C(=O)NCc3c(F)cc(F)cc3F)cn12` [Example C26, (1R,2S,5S)-8-hydroxy-2,5-dimethyl-7,9-dioxo-N-(2,4,6-trifluorobenzyl)-2,5,7,9-tetrahydro-1,6-methanopyrido[1,2-b][1,2,5]triazonine-10-carboxamide], in series [1], the CC50 stood at 28100 nM. The results for the EC50 in series [2] (setting [9]), in series [2] (setting [10]) and in series [3] were 349 nM, 0.63 nM and 2.4 nM, respectively.
In the case of `C[C@@H]1CCC[C@H](C)N2CN1n1cc(C(=O)NCc3c(F)cc(F)cc3F)c(=O)c(O)c1C2=O` [Example C21, (1R,2S,6S)-9-hydroxy-2,6-dimethyl-8,10-dioxo-N-(2,4,6-trifluorobenzyl)-3,4,5,6,8,10-hexahydro-2H-1,7-methanopyrido[1,2-b][1,2,5]triazecine-11-carboxamide], the CC50 in series [1] worked out at 11700 nM. The EC50 turned out to be 98.1 nM in series [2] (setting [9]), 0.23 nM in series [2] (setting [10]) and 1.7 nM in series [3].
Turning to `C[C@@H]1CCC(C)(C)N2CN1n1cc(C(=O)NCc3ccc(F)cc3F)c(=O)c(O)c1C2=O` [Example C93, (1S,2R)—N-(2,4-difluorobenzyl)-8-hydroxy-2,5,5-trimethyl-7,9-dioxo-2,3,4,5,7,9-hexahydro-1,6-methanopyrido[1,2-b][1,2,5]triazonine-10-carboxamide], the CC50 in series [1] turned out to be 50000 nM. Besides, the figures for the EC50 in series [2] (setting [4]), in series [2] (setting [5]) and in series [3] were 96.8 nM, 1.15 nM and 16.9 nM, respectively.
In the case of `C[C@H]1CCC[C@H](C)N2CN1C(=O)c1c(O)c(=O)c(C(=O)NCc3c(F)cc(F)cc3F)cn12` [Example C23, (1S,2S,6S)-9-hydroxy-2,6-dimethyl-8,10-dioxo-N-(2,4,6-trifluorobenzyl)-3,4,5,6,8,10-hexahydro-2H-1,7-methanopyrido[1,2-b][1,2,5]triazecine-11-carboxamide], the CC50 in series [1] was 50000 nM. In addition, the EC50 was found to be 14.5 nM in series [2] (setting [6]), 0.29 nM in series [2] (setting [7]) and 2.5 nM in series [3] (setting [8]).
Take `CO[C@@H]1C=C[C@H](C)N2CN1n1cc(C(=O)NCc3c(F)cc(F)cc3F)c(=O)c(O)c1C2=O` [Example C46, (1R,2R,5S)-8-hydroxy-2-methoxy-5-methyl-7,9-dioxo-N-(2,4,6-trifluorobenzyl)-2,5,7,9-tetrahydro-1,6-methanopyrido[1,2-b][1,2,5]triazonine-10-carboxamide]: in series [1], the CC50 worked out at 27000 nM. In addition, the EC50 was found to be 468 nM in series [2] (setting [4]), 0.44 nM in series [2] (setting [5]) and 1.6 nM in series [3].
Consider `C[C@H]1CCC(C)(C)N2CN1n1cc(C(=O)NCc3ccc(F)cc3F)c(=O)c(O)c1C2=O` [Example C95, (1S,2S)—N-(2,4-difluorobenzyl)-8-hydroxy-2,5,5-trimethyl-7,9-dioxo-2,3,4,5,7,9-hexahydro-1,6-methanopyrido[1,2-b][1,2,5]triazonine-10-carboxamide], for which, in series [1], the CC50 was determined as 50000 nM. In addition, the EC50 was determined as 461 nM in series [2] (setting [6]), 2.52 nM in series [2] (setting [7]) and 12.3 nM in series [3] (setting [8]).
As for `C[C@H]1CC[C@H](C)N2CN1C(=O)c1c(O)c(=O)c(C(=O)NCc3c(F)cc(F)cc3F)cn12` [Example C66, (1R,2S,5S)-8-hydroxy-2,5-dimethyl-7,9-dioxo-N-(2,4,6-trifluorobenzyl)-2,3,4,5,7,9-hexahydro-1,6-methanopyrido[1,2-b][1,2,5]triazonine-10-carboxamide], in series [1], the CC50 was 10400 nM. Also, the values for the EC50 in series [2] (setting [9]), in series [2] (setting [10]) and in series [3] were 179 nM, 0.5 nM and 1.4 nM, respectively.
Consider `C[C@H]1C/C=C\CN2CN1n1cc(C(=O)NCc3ccc(F)cc3F)c(=O)c(O)c1C2=O` [Example C41, (1S,2S,Z)—N-(2,4-difluorobenzyl)-9-hydroxy-2-methyl-8,10-dioxo-3,6,8,10-tetrahydro-2H-1,7-methanopyrido[1,2-b][1,2,5]triazecine-11-carboxamide], for which the CC50 in series [1] was found to be 14200 nM. For the same molecule, the EC50 in series [2] (setting [9]) came to 68.6 nM; in series [2] (setting [10]) it was 0.71 nM; in series [3], 1.2 nM.
For `O=C(NCc1c(F)cc(F)cc1F)c1cn2c(c(O)c1=O)C(=O)N1Cc3ccc(F)cc3CN2C1` [Example C2, (6R)-9-fluoro-1-hydroxy-2,14-dioxo-N-(2,4,6-trifluorobenzyl)-2,7,12,14-tetrahydro-6,13-methanobenzo[g]pyrido[1,2-b][1,2,5]triazonine-3-carboxamide], the CC50 in series [1] worked out at 12800 nM. In addition, the EC50 in series [2] (setting [4]) came out at 47.9 nM; in series [2] (setting [5]), 2.86 nM; in series [3], 18 nM.
Taken in the same sequence, the figures for `C[C@@H]1C/C=C\CN2CN1n1cc(C(=O)NCc3ccc(F)cc3F)c(=O)c(O)c1C2=O` [Example C10, (1R,2R,Z)—N-(2,4-difluorobenzyl)-9-hydroxy-2-methyl-8,10-dioxo-3,6,8,10-tetrahydro-2H-1,7-methanopyrido[1,2-b][1,2,5]triazecine-11-carboxamide] were 7570 nM, 339 nM, 0.4 nM and 1.8 nM.

(Values after patent US11613546B2, “Substituted pyridotriazine compounds and uses thereof” (Gilead Sciences, Inc., priority 2021, dated 2023).)
